# Data taken from patent US8354402B2, “Polyarylcarboxamides useful as lipid lowering agents” (Janssen Pharmaceutica N.V., priority 2000, dated 2013).
# Where a name gives a salt, the structure may show the parent alone.
# System: ApoB secretion, HepG2 cells
# Test: Quantification of the secretion of ApoB (HepG2 cells, immunoprecipitation, scintillation counting)
# Assay type: cell-based
# Conditions: 24 hours of incubation, listed as 37
# Description: C.1. Quantification of the Secretion of ApoB
# HepG2 cells were cultured in 24-well plates in Minimal Essential Medium Rega 3 containing 10% fetal calf serum. Rega 3 has the following composition: CaCl2 (264 μg/ml), KCl (400 μg/ml), MgSO4.7H2O (200 μg/ml), NaCl (6800 μg/ml), NaHCO3 (850 μg/ml), NaH2PO4.H2O (158 μg/ml), D-glucose (1000 μg/ml), phenol red (10 μg/ml), L-alanine (8.9 μg/ml), L-arginine HCl (12 μg/ml), L-asparagine.H2O (15 μg/ml), L-aspartic acid (13.3 μg/ml), L-cystine (24 μg/ml), L-glutamic acid (14.7 μg/ml), glycine (7.5 μg/ml), L-histidine.HCl .H2O (42 μg/ml), L-isoleucine (52 μg/ml), L-leucine (52 μg/ml), L-lysine.HCl (72.5 μg/ml), L-methionine (15 μg/ml), L-phenylalanine (32 μg/ml), L-proline (11.5 μg/ml), L-serine (10.5 μg/ml), L-threonine (48 μg/ml), L-tryptophan (10 μg/ml), L-tyrosine (36 μg/ml), L-valine (46 μg/ml), D-Ca pantothenate (1 μg/ml), choline chloride (1 μg/ml), folic acid (1 μg/ml), 1-enositol (2 μg/ml), nicotinamide (1 μg/ml), pyridoxal HCl (1 μg/ml), riboflavin (0.1 μg/ml) and thiamine HCl (1 μg/ml).
# At 70% confluency, the medium was changed and the test compound or carrier (dimethylsulfoxide, 0.4% final concentration) was added. After 24 hours of incubation, the medium was transferred to Eppendorf tubes and cleared by centrifugation. A sheep antibody directed against either apo B was added to the supernatant and the mixture was kept at 8° C. for 24 hours. Then, rabbit anti-sheep antibody was added and the immune complex was allowed to precipitate for 24 hours at 8° C. The immunoprecipitate was pelleted by centrifugation for 25 minutes at 1320 g and washed twice with a buffer containing 40 mM 4-morpholinepropanesulfonic acid, 40 mM NaH2PO4, 100 mM NaF, 0.2 mM dithiothreitol, 5 mM ethylenediamine tetraacetic acid, 5 mM ethylenebis (oxyethylenenitrilo) tetraacetic acid, 1% Triton-X-100, 0.5% sodium deoxycholate, 0.1% sodium dodecylsulphate, 0.2 μM leupeptin and 0.2 μM phenylmethylsulphonylfluoride. Radioactivity in the pellet was quantified by liquid scintillation counting.
# Resulting IC50 values are enumerated in Table C.1 for a number of compounds No. 1 to No. 123.
row,SMILES,pIC50
1,"COC(=O)C(c1ccccc1)C1CCN(c2ccc(NC(=O)c3ccccc3-c3ccc(C(F)(F)F)cc3)cc2)CC1 (stereo not drawn) [Co. No. 37, methyl α-phenyl-1-[4-[[[4′-(trifluoromethyl)[1,1′-biphenyl]-2-yl]carbonyl]amino]phenyl]-4-piperidineacetate trifluoroacetate (1:1)]",7.507

# Same assay, conditions: Homo sapiens, 24 hours of incubation
row,SMILES,IC50
1,"CCCNC(=O)C(c1ccccc1)C1CCN(c2ccc(NC(=O)c3ccccc3-c3ccc(C(F)(F)F)cc3)cc2)CC1 (stereo not drawn) [Co. No. 38, N-[4-[4-[2-oxo-1-phenyl-2-(propylamino)ethyl]-1-piperidinyl]phenyl]-4′-(trifluoromethyl)-[1,1′-biphenyl]-2-carboxamide trifluoroacetate (1:1)]",6.62 nM

# Same assay, conditions: Homo sapiens, HepG2, 24 h, 24 hours of incubation
row,SMILES,IC50
1,O=C(Nc1ccc(N2CCC(C(C(=O)NCc3ccccc3)c3ccccc3)CC2)cc1)c1cccc2c1Cc1ccccc1-2 (stereo not drawn) [Co. No. 4],≥ 3000 nM
2,O=C(Nc1ccc(N2CCC(C(C(=O)NCc3ccccc3)c3ccccc3)CC2)cc1)c1ccccc1C(=O)c1ccccc1 (stereo not drawn) [Co. No. 5],158 nM
3,O=C(Nc1ccc(N2CCC(C(C(=O)NCc3ccccc3)c3ccccc3)CC2)cc1)c1ccccc1OCc1ccccc1 (stereo not drawn) [Co. No. 8],60.1 nM
4,O=C(Nc1ccc(N2CCC(C(C(=O)NCc3ccccc3)c3ccccc3)CC2)cc1)c1ccccc1Oc1ccccc1 (stereo not drawn) [Co. No. 9],221 nM
5,CCCNC(=O)C(c1ccccc1)C1CCN(c2ccc(NC(=O)c3cccc4c3-c3ccccc3C4)cc2)CC1 (stereo not drawn) [Co. No. 12],231 nM
6,CCCNC(=O)C(c1ccccc1)C1CCN(c2ccc(NC(=O)c3ccccc3-c3ccccc3)cc2)CC1 (stereo not drawn) [Co. No. 13],≤ 30 nM
7,CCCNC(=O)C(c1ccccc1)C1CCN(c2ccc(NC(=O)c3cccc4c3Cc3ccccc3-4)cc2)CC1 (stereo not drawn) [Co. No. 14],≥ 3000 nM
8,CCCNC(=O)C(c1ccccc1)C1CCN(c2ccc(NC(=O)c3ccccc3C(=O)c3ccccc3)cc2)CC1 (stereo not drawn) [Co. No. 15],205 nM
9,CCCNC(=O)C(c1ccccc1)C1CCN(c2ccc(NC(=O)c3ccccc3COc3ccccc3)cc2)CC1 (stereo not drawn) [Co. No. 17],199 nM
10,CCCNC(=O)C(c1ccccc1)C1CCN(c2ccc(NC(=O)c3ccccc3OCc3ccccc3)cc2)CC1 (stereo not drawn) [Co. No. 18],206 nM
11,CCCNC(=O)C(c1ccccc1)C1CCN(c2ccc(NC(=O)c3ccccc3Oc3ccccc3)cc2)CC1 (stereo not drawn) [Co. No. 19],264 nM
12,CCCNC(=O)C(c1ccccc1)C1CCN(c2ccc(NC(=O)c3ccccc3Cc3ccccc3)cc2)CC1 (stereo not drawn) [Co. No. 20],989 nM
13,CC(C)NC(=O)C(c1ccccc1)C1CCN(c2ccc(NC(=O)c3cccc4c3-c3ccccc3C4)cc2)CC1 (stereo not drawn) [Co. No. 21],245 nM
14,CC(C)NC(=O)C(c1ccccc1)C1CCN(c2ccc(NC(=O)c3ccccc3-c3ccccc3)cc2)CC1 (stereo not drawn) [Co. No. 22],104 nM
15,CC(C)NC(=O)C(c1ccccc1)C1CCN(c2ccc(NC(=O)c3cccc4c3Cc3ccccc3-4)cc2)CC1 (stereo not drawn) [Co. No. 23],≥ 3000 nM
16,CC(C)NC(=O)C(c1ccccc1)C1CCN(c2ccc(NC(=O)c3ccccc3CSc3ccccc3)cc2)CC1 (stereo not drawn) [Co. No. 24],847 nM
17,CC(C)NC(=O)C(c1ccccc1)C1CCN(c2ccc(NC(=O)c3ccccc3COc3ccccc3)cc2)CC1 (stereo not drawn) [Co. No. 25],287 nM
18,CC(C)NC(=O)C(c1ccccc1)C1CCN(c2ccc(NC(=O)c3ccccc3OCc3ccccc3)cc2)CC1 (stereo not drawn) [Co. No. 26],275 nM
19,CC(C)NC(=O)C(c1ccccc1)C1CCN(c2ccc(NC(=O)c3ccccc3Oc3ccccc3)cc2)CC1 (stereo not drawn) [Co. No. 27],1300 nM
20,CC(C)NC(=O)C(c1ccccc1)C1CCN(c2ccc(NC(=O)c3ccccc3Cc3ccccc3)cc2)CC1 (stereo not drawn) [Co. No. 28],767 nM
21,O=C(Nc1ccc(N2CCC(C(C(=O)Nc3ccccc3)c3ccccc3)CC2)cc1)c1cccc2c1Cc1ccccc1-2 (stereo not drawn) [Co. No. 29],≥ 3000 nM
22,O=C(Nc1ccc(N2CCC(C(C(=O)Nc3ccccc3)c3ccccc3)CC2)cc1)c1ccccc1-c1ccccc1 (stereo not drawn) [Co. No. 30],165 nM
23,O=C(Nc1ccc(N2CCC(C(C(=O)Nc3ccccc3)c3ccccc3)CC2)cc1)c1ccccc1CSc1ccccc1 (stereo not drawn) [Co. No. 31],1280 nM
24,O=C(Nc1ccc(N2CCC(C(C(=O)Nc3ccccc3)c3ccccc3)CC2)cc1)c1ccccc1COc1ccccc1 (stereo not drawn) [Co. No. 32],2390 nM
25,O=C(Nc1ccc(N2CCC(C(C(=O)Nc3ccccc3)c3ccccc3)CC2)cc1)c1ccccc1OCc1ccccc1 (stereo not drawn) [Co. No. 33],≥ 3000 nM

row,SMILES,IC50
1,O=C(Nc1ccc(N2CCC(C(C(=O)Nc3ccccc3)c3ccccc3)CC2)cc1)c1ccccc1Oc1ccccc1 (stereo not drawn) [Co. No. 34],1550 nM
2,O=C(Nc1ccc(N2CCC(C(C(=O)Nc3ccccc3)c3ccccc3)CC2)cc1)c1ccccc1Cc1ccccc1 (stereo not drawn) [Co. No. 35],≥ 3000 nM
3,O=C(Nc1ccc(N2CCC(C(C(=O)Nc3ccccc3)c3ccccc3)CC2)cc1)c1ccccc1-c1ccc(C(F)(F)F)cc1 (stereo not drawn) [Co. No. 36],≤ 30 nM
4,CCCNC(=O)C(c1ccccc1)C1CCN(c2ccc(NC(=O)c3ccccc3-c3cccc4ccccc34)cc2)CC1 (stereo not drawn) [Co. No. 42],≥ 3000 nM
5,CCCNC(=O)C(c1ccccc1)C1CCN(c2ccc(NC(=O)c3ccccc3-c3ccccc3OC)cc2)CC1 (stereo not drawn) [Co. No. 43],1770 nM
6,CCCNC(=O)C(c1ccccc1)C1CCN(c2ccc(NC(=O)c3ccccc3-c3ccc(F)cc3)cc2)CC1 (stereo not drawn) [Co. No. 44],1040 nM
7,CCCNC(=O)C(c1ccccc1)C1CCN(c2ccc(NC(=O)c3ccccc3-c3ccccc3Cl)cc2)CC1 (stereo not drawn) [Co. No. 45],≥ 3000 nM
8,CCCNC(=O)C(c1ccccc1)C1CCN(c2ccc(NC(=O)c3ccccc3-c3ccc(OC)cc3)cc2)CC1 (stereo not drawn) [Co. No. 46],461 nM
9,CCCNC(=O)C(c1ccccc1)C1CCN(c2ccc(NC(=O)c3ccccc3-c3ccc4ccccc4c3)cc2)CC1 (stereo not drawn) [Co. No. 47],199 nM
10,CCCNC(=O)C(c1ccccc1)C1CCN(c2ccc(NC(=O)c3ccccc3-c3cccc(C(F)(F)F)c3)cc2)CC1 (stereo not drawn) [Co. No. 48],634 nM
11,CCNC(=O)C(c1ccccc1)C1CCN(c2ccc(NC(=O)c3ccccc3-c3cc(Cl)cc(Cl)c3)cc2)CC1 (stereo not drawn) [Co. No. 49],236 nM
12,O=C(Nc1ccc(N2CCC(C(C(=O)NCc3ccccc3)c3ccccc3)CC2)cc1)c1ccccc1-c1cc(Cl)cc(Cl)c1 (stereo not drawn) [Co. No. 50],93.8 nM
13,Cc1ccccc1-c1ccccc1C(=O)Nc1ccc(N2CCC(C(C(=O)NCc3ccccc3)c3ccccc3)CC2)cc1 (stereo not drawn) [Co. No. 51],68.7 nM
14,CC(C)(C)c1ccc(-c2ccccc2C(=O)Nc2ccc(N3CCC(C(C(=O)NCc4ccccc4)c4ccccc4)CC3)cc2)cc1 (stereo not drawn) [Co. No. 53],1.84 nM
15,CC(C)NC(=O)C(c1ccccc1)N1CCN(c2ccc(NC(=O)c3ccccc3-c3ccc(C(F)(F)F)cc3)cc2)CC1 (stereo not drawn) [Co. No. 56],≤ 30 nM
16,O=C(Nc1ccc(N2CCN(C(C(=O)NCc3cccnc3)c3ccccc3)CC2)cc1)c1ccccc1-c1ccc(C(F)(F)F)cc1 (stereo not drawn) [Co. No. 59],≤ 30 nM
17,"CCCNC(=O)C(CN1CCN(c2ccc(NC(=O)c3ccccc3-c3ccc(C(F)(F)F)cc3)cc2)CC1)c1ccccc1 (stereo not drawn) [Co. No. 63, N-[4-[4-[3-oxo-2-phenyl-3-(propylamino)propyl]-1-piperazinyl]phenyl]-4′-(trifluoromethyl)-[1,1′-biphenyl]-2-carboxamide]",122 nM
18,CCCCNC(=O)C(CN1CCN(c2ccc(NC(=O)c3ccccc3-c3ccc(C(F)(F)F)cc3)cc2)CC1)c1ccccc1 (stereo not drawn) [Co. No. 64],159 nM
19,CCCCCNC(=O)C(CN1CCN(c2ccc(NC(=O)c3ccccc3-c3ccc(C(F)(F)F)cc3)cc2)CC1)c1ccccc1 (stereo not drawn) [Co. No. 65],240 nM
20,O=C(Nc1ccc(N2CCN(CC(C(=O)NCC(F)(F)F)c3ccccc3)CC2)cc1)c1ccccc1-c1ccc(C(F)(F)F)cc1 (stereo not drawn) [Co. No. 66],79.6 nM
21,O=C(Nc1ccc(N2CCN(CC(C(=O)NCc3ccccc3)c3ccccc3)CC2)cc1)c1ccccc1-c1ccc(C(F)(F)F)cc1 (stereo not drawn) [Co. No. 67],247 nM
22,CCCNC(=O)C(c1ccccc1)C1CCN(c2ccc(NC(=O)c3ccccc3-c3ccc(Cl)cc3)cc2)CC1 (stereo not drawn) [Co. No. 68],≤ 30 nM
23,"CCNC(=O)C(c1ccccc1)N1CCC(c2ccc(NC(=O)c3ccccc3-c3ccc(C(F)(F)F)cc3)cc2)CC1 (stereo not drawn) [Co. No. 69, N-[4-[1-[2-(ethylamino)-2-oxo-1-phenylethyl]-4-piperidinyl]phenyl]-4′-(trifluoromethyl)-[1,1′-biphenyl]-2-carboxamide]",8.89 nM
24,CCCNC(=O)C(c1ccccc1)N1CCC(c2ccc(NC(=O)c3ccccc3-c3ccc(C(F)(F)F)cc3)cc2)CC1 (stereo not drawn) [Co. No. 70],≤ 30 nM
